# Earlier results as cited in patent US20250381160A1, “Method and Apparatus for Providing Transdermal Delivery of a Carbidopa/Levodopa-Based Lotion for the Treatment of Parkinson's Disease” (Through The Skin LLC, priority 2024, published 2025).
# How the values were obtained:
# [1] = with HA of 150,000-750,000 Daltons, 1-3% of the solution, versus formulations without hyaluronic acid
# [2] = not given; remark: listed apart in the source
# Parkinson's Disease = details: carbidopa given with levodopa
increase of the amount that penetrated the skin [1],solubility in water,half-life of levodopa ([2]; carbidopa and levodopa administered together),plasma half-life of levodopa ([2]; without carbidopa),SMILES,reduction of the amount of levodopa required to produce a given response (Parkinson's Disease)
3 times,–,–,–,O=C(O)Cc1ccccc1Nc1c(Cl)cccc1Cl [diclofenac sodium],–
–,slightly soluble in water,about 1.5 hours,about 50 minutes,"NC(Cc1ccc(O)c(O)c1)C(=O)O (single isomer, unassigned; (-)) [Levodopa, (-)-L-α-amino-β-(3,4-dihydroxybenzene) propanoic acid]",–
–,slightly soluble in water,–,–,"CC(Cc1ccc(O)c(O)c1)(NN)C(=O)O (single isomer, unassigned; (-)) [Carbidopa, (-)-L-α-hydrazino-α-methyl-β-(3,4-dihydroxybenzene) propanoic acid monohydrate]",about 75%
